Experimental data from patent publication US20130243732A1, “ABROGATING PROINFLAMMATORY CYTOKINE PRODUCTION DURING ONCOLYTIC REOVIRUS THERAPY” ([…] INC., priority 2008, published 2013).

Legend:
[1] = system: proinflammatory cytokines (IL-1I, IL-3, IL-6, IL-12, IL-17, MIP-1I, RANTES); test: Pro-inflammatory cytokine production in serum; type: in vivo, mouse; details: CP used in combination with RV
Experimental: FIGS. 3A, 3B, 3C, 3D, 3E, 3F, and 3G are graphs showing pro-inflammatory cytokine response is abrogated by cisplatin. The response of IL-1I (FIG. 3A), IL-3 (FIG. 3B), IL-6 (FIG. 3C), IL-12 (FIG. 3D), IL-17 (FIG. 3E), MIP-1I (FIG. 3F) and RANTES (FIG. 3G) were measured after no treatment (control) or treatment with reovirus, cisplatin or the combination of reovirus and cisplatin.
(§1) For in vivo evaluation, subcutaneous B16.F10 tumors in C57Bl/6 mice or K1735 tumors in C3H mice were treated with intratumoral (i.t.) RV and intraperitoneal (i.p.) CP either alone or in combination. Tumor volume was estimated thrice weekly. Tumors and organs were harvested post-treatment for viral retrieval and histology; serum samples were tested for cytokine production and induction of neutralising anti-reovirus antibody (NARA). […] Tumors were measured on the days indicated and tumor volume expressed as tumor volume relative to volume at commencement of treatment (FIGS. 1A and 1B). […] Survival is expressed as Kaplan-Myer plots (FIGS. 1C and 1D). […] In contrast live virus was detected in only 50% of tumors from combination treated mice but in the liver of 4/6 mice.

[2] = system: subcutaneous B16.F10 tumors in C57Bl/6 mice or K1735 tumors in C3H mice; test: In vivo tumor growth and survival, i.t. RV and i.p. CP alone or in combination; parameters: species or system mouse; details: treated days 1 and 4, tumor model not stated
Experimental: C57Bl/6 (FIGS. 1A and 1C) and C3H (FIGS. 1B and 1D) mice bearing subcutaneous B16.F10 and K1735 tumors, respectively, were treated on days 1 and 4 with either reovirus alone via intratumoral (i.t.) injection (squares), cisplatin alone via intraperitoneal (i.p.) administration (triangles), or reovirus and cisplatin in combination (circles). Control treated mice (diamonds) received PBS. Tumors were measured on the days indicated and tumor volume expressed as tumor volume relative to volume at commencement of treatment (FIGS. 1A and 1B). Mice were euthanized when tumors exceeded 15 mm in any one dimension. Survival is expressed as Kaplan-Myer plots (FIGS. 1C and 1D).
as §1, with “weekly.” for “weekly. Tumors and organs were harvested post-treatment for viral retrieval and histology; serum samples were tested for cytokine production and induction of neutralising anti-reovirus antibody (NARA).”

[3] = system: neutralizing anti-reovirus antibody (NARA); test: Neutralising anti-reovirus antibody (NARA) response in serum; type: in vivo, mouse; details: CP used in combination with RV
Experimental: FIG. 2 is a graph showing the neutralizing anti-reovirus antibody (NARA) response after no treatment (control) or treatment with reovirus, cisplatin or the combination of reovirus and cisplatin.
For in vivo evaluation, subcutaneous B16.F10 tumors in C57Bl/6 mice or K1735 tumors in C3H mice were treated with intratumoral (i.t.) RV and intraperitoneal (i.p.) CP either alone or in combination. Tumor volume was estimated thrice weekly. Tumors and organs were harvested post-treatment for viral retrieval and histology; serum samples were tested for cytokine production and induction of neutralising anti-reovirus antibody (NARA). […] C57Bl/6 (FIGS. 1A and 1C) and C3H (FIGS. 1B and 1D) mice bearing subcutaneous B16.F10 and K1735 tumors respectively were treated on days 1 and 4 with either reovirus alone i.t. (squares), cisplatin alone i.p. (triangles), or reovirus and cisplatin in combination (circles). Control treated mice (diamonds) received PBS. Tumors were measured on the days indicated and tumor volume expressed as tumor volume relative to volume at commencement of treatment (FIGS. 1A and 1B). Mice were euthanized when tumors exceeded 15 mm in any one dimension. Survival is expressed as Kaplan-Myer plots (FIGS. 1C and 1D). […] In contrast live virus was detected in only 50% of tumors from combination treated mice but in the liver of 4/6 mice.

With `N.N.[Cl][Pt][Cl]` [CP, cisplatin] as the molecule, how does the “production of proinflammatory cytokines to RV” value [1] read?
Its value is “marked attenuation”.

What about the “Mean relative tumor volumes ±SD” value ([2]; day 12, volume relative to commencement of treatment) of the same molecule?
The value was 9.87±2.80.

What about the Median survival ([2]; euthanized when tumors exceeded 15 mm) of the same molecule?
Its Median survival is 8 days.

And the “neutralizing anti-reovirus antibody (NARA) response to RV” value [3]?
The value was “did not affect”.
